Measurements published in publication PMC11546786, “Designing Analogs of SAAP-148 with Enhanced Antimicrobial and Anti-LPS Activities” (International Journal of Molecular Sciences, 2024).
Ends that are not written are not given here.

Key:
[1] = system: five bacterial strains; experiment: MICs against all five bacterial strains (geometric mean, range); type: cell-based; parameters: unit not given here; conditions: geometric mean of MICs against all five bacterial strains
How it was run: (§1)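 Modified CLSI broth microdilution: mid-log bacteria from LB culture were adjusted to 1 × 10^6 CFU/mL and mixed 1:1 with peptide serially diluted in PBS. After 18 to 20 h at 37 °C, growth was read as absorbance at 600 nm.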

[2] = system: Klebsiella pneumonia (1.1736); type: cell-based, Klebsiella pneumoniae
Description: The LL-37, SAAP-148 and its analogues peptides were synthesized according to the standard Fmoc procedure. The Fmoc-protected resin and monomers are first treated with a basic solvent (piperidine) to remove the amino protecting groups. The carboxyl group of the next amino acid is activated by an activator. The activated monomer reacts with the free amino group to form a peptide bond. These two steps are repeated in a cycle until the synthesis is complete. After synthesis, the peptide is eluted from the column and purified by reverse-phase semipreparative high-performance liquid chromatography as detailed in Table 1. The peptides were dissolved in PBS to create a 1000 μmol/L stock solution for subsequent use. The purity of the synthetic peptide exceeded 95%. Blood samples from healthy donors were obtained from the Fifth Medical Center of Chinese PLA General Hospital (Beijing, China). Human normal lung epithelial cells (BEAS-2B) and mouse mononuclear macrophages cells (RAW 264.7) were sourced from Beyotime Biotechnology (Beijing, China), along with the Enhanced Cell Counting Kit-8 (CCK-8) and nitric oxide detection kit. RPMI-1640 and DMEM were procured from Merck (Darmstadt, Germany), while FBS was obtained from ExCell Bio (Shanghai, China). LPS-B5 (from E. coli 055:B5) was procured from Invivogen (Toulouse, France). Five bacterial strains, including Escherichia coli (1.8732), Pseudomonas aeruginosa (1.2421), Klebsiella pneumonia (1.1736) as Gram-negative bacteria, and Staphylococcus aureus (1.8721) and Staphylococcus epidermidis (1.4260) as Gram-positive bacteria, were procured from the China General Microbiological Culture Collection Centre (CGMCC) (Beijing, China).
The antibacterial activities of the peptides against […] were evaluated using a modified version of the Clinical Laboratory and Standards Institute (CLSI) broth microdilution method, as previously described. Briefly, the bacteria were cultured in liquid LB medium (comprising 10 g/L tryptone, 5 g/L yeast extract, and 10 g/L NaCl) at 37 °C until reaching mid-log phase. Subsequently, the bacterial concentration was adjusted to 1 × 10^6 colony-forming units (CFU)/mL. The peptides were then diluted serially with phosphate-buffered saline (PBS), followed by the addition of 50 μL of the diluted peptides to 50 μL of the bacterial suspension in a 96-well plate (Corning Inc., Lowell, MA, USA). After incubating at 37 °C for 18 to 20 h, the absorbance of each well was measured using a multi-well microplate reader (SpectraMax M5; Molecular Devices, Sunnyvale, CA, USA) at 600 nm.

[3] = system: Gram-positive bacteria (S. aureus, S. epidermidis); experiment: Geometric mean of MICs against Gram-positive bacteria; type: cell-based; parameters: unit not given here
How it was run: as §1

[4] = Reversed-phase HPLC retention time as measure of peptide hydrophobicity; type: physicochemical; conditions: retention time by reverse-phase HPLC, reflects hydrophobicity difference between analogues
[5] = CD spectra, secondary structure by BeStSel; type: physicochemical; conditions: 30 μM SDS as printed, 100 μM peptide, 25 °C
How it was run: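 Far-UV CD spectra (190–250 nm) of peptides at 100 μM in SDS, 0.1 cm cells, 25 °C under nitrogen. Secondary-structure content derived from spectra by BeStSel deconvolution.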

Substance: LKRVWKRVFKLKKRYWRQLKKPVR-NH2 [SAAP-7]
- MIC (GM) [1]: 16.49
- MIC K. pneumoniae [2]: 100.00 µM
- GM to G+ [3]: 35.36
- Rt [4]: 12.897 min
- Others [5]: 3.4%
- Turn [5]: 0%
- α-Helix [5]: 48.3%
- β-Antiparallel [5]: 48.3%
- β-Parallel [5]: 0%
